According to patent publication US11890288B2, “Sulfonamide or sulfinamide compound having effect of inducing BRD4 protein degradation and pharmaceutical use thereof” (MITSUBISHI TANABE PHARMA CORPORATION, priority 2020, dated 2024):
Marks after values point to notes of the source that are not given here.

What was measured:
[1] = system: human prostate cancer LNCaP cells; experiment: Cytotoxic action on LNCaP cells (WST-8, 96 hr); assay type: cell-based; conditions: 96 hr culture
In short: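 Overnight pre-culture (10% FBS/RPMI1640, 37° C, 5% CO2) → compound from DMSO stock diluted in medium → 96 hr → WST-8 viable count. IC50 = conc. at 50% survival vs untreated, linear interpolation. (+)-JQ1 as positive control.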

BRD4 protein = BRD4 protein (Homo sapiens (Human), UniProt O60885); experiment: BRD4 protein degradation inducing action in LNCaP cells (immunofluorescence, 6 hr); assay type: cell-based; conditions: anti-BRD4 fluorescence intensity
In short: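 Read-out is BRD4 immunofluorescence intensity (560/572 nm) after 6 hr compound treatment of LNCaP cells in 10% FBS/RPMI1640, with fixation, permeabilization and anti-BRD4 staining. Linear interpolation between the two concentrations flanking 50% of untreated intensity gives DC50.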

[2] = system: Human breast cancer MDA-MB-436 cells; experiment: Cytotoxic action on MDA-MB-436 cells (WST-8, 96 hr); assay type: cell-based; conditions: Homo sapiens
Experimental: (§1) The cytotoxic action of the compound of the present invention against cancer cells that acquired resistance to conventional BRD4 protein degradation inducing agents was evaluated in vitro. In this experiment, ARV-771 (Proc Natl Acad Sci USA. volume 113, pages 7124-7129 (28 Jun. 2016)) and MZ1 (ACS Chem Biol. Volume 10, pages 1770-1777 (21 Aug. 2015)), in which a ligand for VHL and BRD4 protein inhibitor are linked, were used as a conventional BRD4 protein degradation inducing agent serving as a comparison control. Human breast cancer MDA-MB-436 cells and MDA-MB-436 cells that acquired resistance to conventional BRD4 protein degradation inducing agents (MDA-MB-436 w/o2 cells) were suspended in 10% FBS/RPMI1640, seeded in a 96 well plate and cultured at 5% CO2, 37° C. overnight. A test compound dissolved in DMSO was diluted with 10% FBS/RPMI1640 and added and the cells were further cultured for 96 hr. After culturing, the viable cell number was measured using a cell number measurement WST-8 kit (Kishida Chemical Co., Ltd.). As a control, the measurement was performed under conditions free of the test compound. The cytotoxic activity of the compound of the present invention against each cell is shown in IC50 value in Table 4. The IC50 value is a concentration of the compound showing 50% cell survival rate when the cell survival rate thereof under compound untreated condition is 100%. It was calculated from the straight line connecting the cell survival rate at two points enclosing the 50% cell survival rate and the compound concentration. In addition, the tolerance (fold) was calculated by dividing the IC50 value in MDA-MB-436 w/o2 cells by the IC50 value in MDA-MB-436 cells.

MDA-MB-436 w/o2 cells = experiment: Cytotoxic action on MDA-MB-436 w/o2 cells that acquired resistance to conventional BRD4 degraders (WST-8, 96 hr); assay type: cell-based, human
Experimental: as §1

[3] = system: human acute myeloid leukemia MV-4-11 cell transplanted mouse; experiment: Antitumor effect of 1 week intermittent administration to MV-4-11 cell transplanted mouse (tail vein, days 1 and 8); assay type: in vivo; conditions: tumor weight on day 15
Experimental: The in vivo antitumor effect of the compound of the present invention was studied using human acute myeloid leukemia MV-4-11 cell transplanted mouse. MV-4-11 cells were subcutaneously transplanted into the inguinal region of male, 6-week-old BALB/c nude mouse (5×10^6 cells/mouse). The compound of the present invention was administered into the tail vein on days 1 and 8 from the time point when the assumed tumor volume determined from ½ab^2 (a is major axis and b is minor axis of tumor) reached about 200 mm^3 (day 1). The control group was administered with a solvent, 10% Kolliphor ELP/5% ethanol/85% saline solution. On day 15, the tumor was isolated, the weight was measured, and the tumor growth inhibitory rate IR (%) was calculated by the following formula. tumor growth inhibitory rate IR (%)={1−(average tumor weight of administration group/average tumor weight of nonadministration control group)}×100(%)

SMILES	IC50 [1]	DC50 (BRD4 protein)	IC50 [2]	IC50 (MDA-MB-436 w/o2 cells; Homo sapiens, MDA-MB-436 w/o2 cells, 96 hr)	resistance (MDA-MB-436 w/o2 cells; IC50 in MDA-MB-436 w/o2 cells divided by IC50 in MDA-MB-436 cells)	tumor growth inhibitory rate ([3]; 4 mg/kg/day)	tumor growth inhibitory rate ([3]; 12.5 mg/kg/day)
COC(=O)C[C@@H]1N=C(c2ccc(-c3ccc(C(=O)NCCc4ccc(S(=O)(=O)Nc5ccc(C)c6c(C#N)c[nH]c56)cc4)cc3F)cc2)c2c(sc(C)c2C)-n2c(C)nnc21 [Example 46, methyl [(6S)-4-{4′-[(2-{4-[(3-cyano-4-methyl-1H-indol-7-yl)sulfamoyl]phenyl}ethyl)carbamoyl]-2′-fluoro[1,1′-biphenyl]-4-yl}-2,3,9-trimethyl-6H-thieno[3,2-f][1,2,4]triazolo[4,3-a][1,4]diazepin-6-yl]acetate]	0.19 nM	0.11 nM	0.2 nM	0.26 nM	1.3 fold	–	–
COC(=O)C[C@@H]1N=C(c2ccc(-c3ccc(C(=O)NCc4ccc(S(=O)(=O)Nc5ccc(C)c6c(C#N)c[nH]c56)cc4)c(F)c3F)cc2)c2c(sc(C)c2C)-n2c(C)nnc21 [Example 74, methyl [(6S)-4-{4′-[({4-[(3-cyano-4-methyl-1H-indol-7-yl)sulfamoyl]phenyl}methyl)carbamoyl]-2′,3′-difluoro[1,1′-biphenyl]-4-yl}-2,3,9-trimethyl-6H-thieno[3,2-f][1,2,4]triazolo[4,3-a][1,4]diazepin-6-yl]acetate]	0.21 nM	0.092 nM	–	–	–	43** %	94** %
COC(=O)C[C@@H]1N=C(c2ccc(-c3ccc(C(=O)NCc4ccc(S(=O)(=O)Nc5ccc(C)c6c(C#N)c[nH]c56)cc4)cc3Cl)cc2)c2c(sc(C)c2C)-n2c(C)nnc21 [Example 47, methyl [(6S)-4-{2′-chloro-4′-[({4-[(3-cyano-4-methyl-1H-indol-7-yl)sulfamoyl]phenyl}methyl)carbamoyl][1,1′-biphenyl]-4-yl}-2,3,9-trimethyl-6H-thieno[3,2-f][1,2,4]triazolo[4,3-a][1,4]diazepin-6-yl]acetate]	0.46 nM	0.3 nM	–	–	–	32* %	68** %
COC(=O)C[C@@H]1N=C(c2ccc(-c3ccc(C(=O)NCc4ccc(S(=O)(=O)Nc5ccc(C)c6c(C#N)c[nH]c56)cc4)cc3C)cc2)c2c(sc(C)c2C)-n2c(C)nnc21 [Example 75, methyl [(6S)-4-{4′-[({4-[(3-cyano-4-methyl-1H-indol-7-yl)sulfamoyl]phenyl}methyl)carbamoyl]-2′-methyl[1,1′-biphenyl]-4-yl}-2,3,9-trimethyl-6H-thieno[3,2-f][1,2,4]triazolo[4,3-a][1,4]diazepin-6-yl]acetate]	0.47 nM	0.32 nM	–	–	–	–	–
CCc1ccc(NS(=O)(=O)c2ccc([C@@H](C)NC(=O)c3ccc(-c4ccc(C5=N[C@@H](CC(=O)OC)c6nnc(C)n6-c6sc(C)c(C)c65)cc4)cc3)cc2)c2[nH]cc(C#N)c12 [Example Compound 127, methyl [(6S)-4-(4′-{[(1R)-1-{4-[(3-cyano-4-ethyl-1H-indol-7-yl)sulfamoyl]phenyl}ethyl]carbamoyl}[1,1′-biphenyl]-4-yl)-2,3,9-trimethyl-6H-thieno[3,2-f][1,2,4]triazolo[4,3-a][1,4]diazepin-6-yl]acetate]	0.032 nM	0.024 nM	–	–	–	–	–
CCc1ccc(NS(=O)(=O)c2ccc([C@@H](C)NC(=O)c3cnc(-c4ccc(C5=N[C@@H](CC(=O)OC)c6nnc(C)n6-c6sc(C)c(C)c65)cc4)cn3)cc2)c2[nH]cc(C#N)c12 [Example 106, methyl {(6S)-4-[4-(5-{[(1R)-1-{4-[(3-cyano-4-ethyl-1H-indol-7-yl)sulfamoyl]phenyl}ethyl]carbamoyl}pyrazin-2-yl)phenyl]-2,3,9-trimethyl-6H-thieno[3,2-f][1,2,4]triazolo[4,3-a][1,4]diazepin-6-yl}acetate]	0.079 nM	0.059 nM	–	–	–	96** %	98** %
Cc1sc2c(c1C)C(c1ccc(-c3ccc(C(=O)NCc4ccc(S(=O)(=O)Nc5ccc(C)c6c(C#N)c[nH]c56)cc4)cc3Cl)cc1)=N[C@@H](CC(=O)OC(C)(C)C)c1nnc(C)n1-2 [Example Compound 143, t-butyl [(6S)-4-{2′-chloro-4′-[({4-[(3-cyano-4-methyl-1H-indol-7-yl)sulfamoyl]phenyl}methyl)carbamoyl][1,1′-biphenyl]-4-yl}-2,3,9-trimethyl-6H-thieno[3,2-f][1,2,4]triazolo[4,3-a][1,4]diazepin-6-yl]acetate]	2.4 nM	1.6 nM	–	–	–	–	–
Cc1sc2c(c1C)C(c1ccc(-c3ccc(C(=O)NCc4ccc(S(=O)(=O)Nc5ccc(C)c6c(C#N)c[nH]c56)cc4)c(F)c3F)cc1)=N[C@@H](CC(=O)OC(C)(C)C)c1nnc(C)n1-2 [Example Compound 138, t-butyl [(6S)-4-{4′-[({4-[(3-cyano-4-methyl-1H-indol-7-yl)sulfamoyl]phenyl}methyl)carbamoyl]-2′,3′-difluoro[1,1′-biphenyl]-4-yl}-2,3,9-trimethyl-6H-thieno[3,2-f][1,2,4]triazolo[4,3-a][1,4]diazepin-6-yl]acetate]	0.77 nM	0.32 nM	–	–	–	–	–
COC(=O)C[C@@H]1N=C(c2ccc(-c3ccc(C(=O)N[C@H](C)c4ccc(S(=O)(=O)Nc5ccc(C)c6c(C#N)c[nH]c56)cc4)c(Cl)c3)cc2)c2c(sc(C)c2C)-n2c(C)nnc21 [Example 70, methyl [(6S)-4-(3′-chloro-4′-{[(1R)-1-{4-[(3-cyano-4-methyl-1H-indol-7-yl)sulfamoyl]phenyl}ethyl]carbamoyl}[1,1′-biphenyl]-4-yl)-2,3,9-trimethyl-6H-thieno[3,2-f][1,2,4]triazolo[4,3-a][1,4]diazepin-6-yl]acetate]	0.23 nM	0.13 nM	–	–	–	–	–
COC(=O)C[C@@H]1N=C(c2ccc(-c3cnc(C(=O)NCc4ccc(S(=O)(=O)Nc5ccc(C)c6c(C#N)c[nH]c56)cc4)nc3)cc2)c2c(sc(C)c2C)-n2c(C)nnc21 [Example Compound 146, methyl [(6S)-4-(4-{2-[({4-[(3-cyano-4-methyl-1H-indol-7-yl)sulfamoyl]phenyl}methyl)carbamoyl]pyrimidin-5-yl}phenyl)-2,3,9-trimethyl-6H-thieno[3,2-f][1,2,4]triazolo[4,3-a][1,4]diazepin-6-yl]acetate]	1.3 nM	0.26 nM	–	–	–	–	–
COC(=O)NC1N=C(c2ccc(-c3ccc(C(=O)NCc4ccc(S(=O)(=O)Nc5ccc(C)c6c(C#N)c[nH]c56)cc4)cc3)cc2)c2c(sc(C)c2C)-n2c(C)nnc21 (centres unmarked) [Example 36, methyl (4-{4′-[({4-[(3-cyano-4-methyl-1H-indol-7-yl)sulfamoyl]phenyl}methyl)carbamoyl][1,1′-biphenyl]-4-yl}-2,3,9-trimethyl-6H-thieno[3,2-f][1,2,4]triazolo[4,3-a][1,4]diazepin-6-yl)carbamate]	1.4 nM	0.41 nM	–	–	–	–	–
Cc1sc2c(c1C)C(c1ccc(-c3ccc(C(=O)NCc4ccc(S(=O)(=O)Nc5ccc(C)c6c(C#N)c[nH]c56)cc4)c(F)c3)cc1)=N[C@@H](CC(=O)OC(C)(C)C)c1nnc(C)n1-2 [Example Compound 139, t-butyl [(6S)-4-{4′-[({4-[(3-cyano-4-methyl-1H-indol-7-yl)sulfamoyl]phenyl}methyl)carbamoyl]-3′-fluoro[1,1′-biphenyl]-4-yl}-2,3,9-trimethyl-6H-thieno[3,2-f][1,2,4]triazolo[4,3-a][1,4]diazepin-6-yl]acetate]	0.45 nM	0.25 nM	–	–	–	–	–
COC(=O)C[C@@H]1N=C(c2ccc(-c3ccc(C(=O)NCc4ccc(S(=O)(=O)Nc5ccc(C)c6c(C#N)c[nH]c56)cc4)cc3)cc2)c2c(sc(CO)c2C)-n2c(C)nnc21 [Example 55, methyl [(6S)-4-{4′-[({4-[(3-cyano-4-methyl-1H-indol-7-yl)sulfamoyl]phenyl}methyl)carbamoyl][1,1′-biphenyl]-4-yl}-2-(hydroxymethyl)-3,9-dimethyl-6H-thieno[3,2-f][1,2,4]triazolo[4,3-a][1,4]diazepin-6-yl]acetate]	3 nM	1.4 nM	–	–	–	–	–
